The source of these data is patent US20070117770A1, “Human ribosomal DNA (rDNA) and ribosomal RNA (rRNA) nucleic acids and uses thereof” (Cylene Pharmaceuticals, Inc., priority 2005, published 2007).

The subject of experiment [1] is HCT116 cells. Nature of the experiment: DNA synthesis (BrdU-ELISA). In kind it is cell-based. The settings on record: for A-1 a concentration at which many of the cells were dead. The method, then: Effects of compound A-1 and compound B-1 on DNA synthesis, RNA synthesis and protein synthesis were determined in HCT116 cells. HCT116 cells were plated overnight at 100,000 cells per mL. Next day cells were treated with increasing amounts of either compound A-1 or compound B-1 followed by one hour incubation with BrdU label (from a BrdU Cell proliferation Assay Kit, Calbiochem) to monitor DNA synthesis; […] of ^3H-uridine to monitor total RNA synthesis; […] of ^3H-methionine to monitor protein synthesis or plain media to monitor RNA Polymerase II-dependent RNA synthesis. DNA synthesis was assessed using a BrdU-ELISA (BrdU Cell proliferation Assay Kit, Calbiochem). To measure total RNA synthesis, total RNA from treated cells was isolated with a RNease kit (QIAGEN), levels of total RNA were assessed with Ribogreen reagent (Invitrogen) and the newly synthesized tritiated RNA was measured in a scintillation Counter (Perkin Elmer). To measure effects on protein synthesis, cells were lysed in a RIPA buffer, and total protein was precipitated with 10% TCA on a glass-filters. Newly synthesized tritiated protein was measured in a scintillation Counter (Perkin Elmer). Effects of drugs on […] RNA synthesis were assessed by monitoring levels of a c-myc mRNA, which has a relatively short half-life of approximately 30 minutes, by Taqman qRT-PCR (ABI).

The target of experiment [2] is RIPK2(h) (Homo sapiens, UniProt O43353). Kind of experiment: Protein kinase inhibition assay. It counts as biochemical. The note with it: read-out: percent residual activity of RIPK2(h). On the procedure:
(§1) Certain compounds were tested for activity in protein kinase inhibition assays. All substrates were dissolved and diluted to working stocks in de-ionized water, apart from histone H1 (10× working stock in 20 mM MOPS pH 7.0), PDKtide (10× working stock in 50 mM Tris pH 7.0) ATF2 (which is typically stored at a 20× working stock in 50 mM Tris pH 7.5, 150 mM NaCl, 0.1 mM EGTA, 0.03% Brij-35, 50% glycerol, 1 mM benzamidine, 0.2 mM PMSF and 0.1% R-mercaptoethanol), KKLNRTLSFAEPG (SEQ ID NO:203) and RRRLSFAEPG (SEQ ID NO:204) (50 mM HEPES pH 7.4) and GGEEEEYFELVKKKK (SEQ ID NO:205) (20 mM MOPS pH 7.0). All kinases were pre-diluted to a 10× working concentration prior to addition into the assay. The composition of the dilution buffer for each kinase is detailed below.
(§2) In a final reaction volume of 25 μl, RIPK2 (h) (5-10 mU) is incubated with 8 mM MOPS pH 7.0, 0.2 mM EDTA, 0.33 mg/ml myelin basic protein, 10 mM MgAcetate and [gamma-33P-ATP] (specific activity approx. 500 cpm/pmol, concentration as required). The reaction is initiated by the addition of the MgATP mix. After incubation for 40 minutes at room temperature, the reaction is stopped by the addition of 5 μl of a 3% phosphoric acid solution. 10 μl of the reaction is then spotted onto a P30 filtermat and washed three times for 5 minutes in 75 mM phosphoric acid and once in methanol prior to drying and scintillation counting.

Experiment [3] concerns the target PKA(b) (Bos taurus, UniProt P00517). Nature of the experiment: Protein kinase inhibition assay. In kind it is biochemical, bovine. The settings on record: read-out: percent residual activity of PKA(b). On the procedure: as §1
as §2, with “PKA (b)” for “RIPK2 (h)”, “30 μM LRRASLG (SEQ ID NO:209) (Kemptide),” for “0.33 mg/ml myelin basic protein,”, “[y-33P-ATP]” for “[gamma-33P-ATP]”, “50” for “75”

For experiment [4], the target named is PAR-1Bα(h) (Homo sapiens, UniProt Q7KZI7). Nature of the experiment: Protein kinase inhibition assay. It counts as biochemical. The settings on record: read-out: percent residual activity of PAR-1Bα(h). On the procedure: as §1
PAR-1Bα(h), sequence (Q7KZI7 1-725 isoform Q7KZI7-4): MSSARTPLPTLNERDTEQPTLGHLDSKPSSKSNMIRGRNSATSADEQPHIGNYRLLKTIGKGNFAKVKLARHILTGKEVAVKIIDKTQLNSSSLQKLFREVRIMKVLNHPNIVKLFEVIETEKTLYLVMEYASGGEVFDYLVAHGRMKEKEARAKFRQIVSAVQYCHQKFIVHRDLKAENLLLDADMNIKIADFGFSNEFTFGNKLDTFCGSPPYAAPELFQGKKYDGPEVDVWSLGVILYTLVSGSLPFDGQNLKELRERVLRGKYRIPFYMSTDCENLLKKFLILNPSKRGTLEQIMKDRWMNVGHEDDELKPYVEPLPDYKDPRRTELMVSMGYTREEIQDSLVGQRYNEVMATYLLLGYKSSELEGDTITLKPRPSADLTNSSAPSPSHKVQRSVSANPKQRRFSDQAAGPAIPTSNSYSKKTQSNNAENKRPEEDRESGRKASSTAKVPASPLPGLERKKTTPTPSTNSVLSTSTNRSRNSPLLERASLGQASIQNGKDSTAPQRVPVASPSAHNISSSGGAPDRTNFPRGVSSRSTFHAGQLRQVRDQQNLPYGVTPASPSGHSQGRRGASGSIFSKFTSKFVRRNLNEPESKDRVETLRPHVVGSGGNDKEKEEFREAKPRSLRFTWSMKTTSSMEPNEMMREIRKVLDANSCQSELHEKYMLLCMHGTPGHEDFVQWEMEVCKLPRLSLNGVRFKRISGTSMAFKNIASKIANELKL
as §2, with “μl, PAR-1Bα” for “μl, RIPK2”, “EDTA, 100 μM […] (SEQ ID NO:213),” for “EDTA, 0.33 mg/ml myelin basic protein,”, “10 pi” for “10 μl”

Experiment [5] addresses T1, nucleolin/HP pre-rRNA region (Homo sapiens, UniProt P19338).
T1 construct: without the N-terminal acidic stretches domain
Nature of the experiment: EMSA, nucleolin/HP ligand interaction. In kind it is binding. The note with it: nucleolin ~250 nM, 32P-labeled ligand 10 or 250 nM, 30 minutes (FIG. 1, FIG. 2). The method, then:
The following assays assessed effects of compounds on interactions between nucleolin and nucleic acid ligands capable of forming quadruplex (QP) and hairpin (HP) secondary structures. Nucleic acid ligands tested were a cMyc QP DNA having nucleotide sequence 5′-[…]-3′ (SEQ ID NO: 176) and a HP pre-rRNA region to which nucleolin binds, having the sequence 5′-[…]-3′ (SEQ ID NO: 177). In the assays, recombinant nucleolin (˜250 nM), which was fused to maltose binding protein and had the sequence under accession number NM_005381 without the N-terminal acidic stretches domain, was incubated with each of the two ^32P-labeled nucleic acid ligands (10 or 250 nM). Nucleolin and the nucleic acid ligand were incubated in the presence or absence of a test compound of Formula A-1, B-1, C-6 or C-7 in an incubation buffer (12.5 mM Tris, pH 7.6, 60 mM KCl, 1 mM MgCl2, 0.1 mM EDTA, 1 mM DTT, 5% glycerol, 0.1 mg/ml BSA) for 30 minutes at room temperature. Structures for A-1 and B-1 are shown above and structures for C-6 and C-7 are shown hereafter: [drawing 17] The resulting complexes were separated on a 6% DNA retardation gel using 0.5× TBE with 20 mM KCl as a running buffer (i.e., electrophoresis mobility shift assay (EMSA)).
On the technique in general: Mobility shift assays separate free from complexed probe on a gel.

T1 sequence (P19338 284-710 limits assumed): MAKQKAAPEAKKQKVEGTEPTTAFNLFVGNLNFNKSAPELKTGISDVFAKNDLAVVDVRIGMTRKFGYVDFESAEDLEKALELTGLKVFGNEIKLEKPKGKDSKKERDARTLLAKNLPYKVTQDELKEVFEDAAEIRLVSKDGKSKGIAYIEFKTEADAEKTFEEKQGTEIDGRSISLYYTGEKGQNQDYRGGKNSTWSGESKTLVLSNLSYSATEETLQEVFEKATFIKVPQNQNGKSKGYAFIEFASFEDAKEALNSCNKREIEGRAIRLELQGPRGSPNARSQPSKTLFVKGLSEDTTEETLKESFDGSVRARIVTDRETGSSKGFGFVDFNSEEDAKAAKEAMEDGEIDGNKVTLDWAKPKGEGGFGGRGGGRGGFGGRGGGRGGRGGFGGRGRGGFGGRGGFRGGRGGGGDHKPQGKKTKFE
RIPK2(h), sequence (O43353 whole entry): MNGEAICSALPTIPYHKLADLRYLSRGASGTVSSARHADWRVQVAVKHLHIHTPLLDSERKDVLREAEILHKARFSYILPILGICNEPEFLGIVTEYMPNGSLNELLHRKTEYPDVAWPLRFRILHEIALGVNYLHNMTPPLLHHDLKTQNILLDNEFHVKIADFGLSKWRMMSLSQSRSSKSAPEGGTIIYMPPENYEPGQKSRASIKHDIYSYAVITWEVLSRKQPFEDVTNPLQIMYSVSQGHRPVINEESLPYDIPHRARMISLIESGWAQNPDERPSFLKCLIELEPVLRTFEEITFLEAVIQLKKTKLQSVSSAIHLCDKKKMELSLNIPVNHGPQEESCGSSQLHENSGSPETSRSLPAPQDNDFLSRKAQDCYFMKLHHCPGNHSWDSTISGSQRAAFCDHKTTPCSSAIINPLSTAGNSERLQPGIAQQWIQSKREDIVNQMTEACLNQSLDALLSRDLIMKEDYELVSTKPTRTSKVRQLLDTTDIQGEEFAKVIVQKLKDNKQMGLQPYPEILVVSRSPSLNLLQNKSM

`CN1CCCC1CCNC(=O)c1cn2c3c(c(N4CCC(c5cnccn5)C4)c(F)cc3c1=O)Oc1cc3ccccc3cc1-2` (stereo not shown) [Compound A-1] gave a concentration that significantly reduced DNA synthesis in experiment [1] of 10 µM. The remaining activity at 2.5 µM in experiment [2] came to 95%; in experiment [3] it was 99%; in experiment [4], 88%. For the same compound, in experiment [5], the “interference with the nucleolin/HP ligand interaction” value is “did not significantly interfere with the nucleolin/HP ligand interaction”.

Take `CC(=O)N1CCN(c2ccc3c(=O)c(C(=O)NCCN4CCCC4)c4n(C)c5ccccc5n4c3n2)CC1` [Compound B-1]: the concentration that significantly reduced DNA synthesis in experiment [1] was 30 µM. Also, the remaining activity at 2.5 µM in experiment [2] turned out to be 99%; in experiment [3], 96%; in experiment [4], 100%. Also, in experiment [5], the “interference with the nucleolin/HP ligand interaction” value is on record as “did not significantly interfere with the nucleolin/HP interaction”.
